Converted amounts (≈) assume the structure as drawn. “And” between values parts separate entries of the source, which are not always exact repeats. Identical values can stand only once.
Legend:
[1] = system: P19^R strain rv1751 P152S; format: cell-based, Mycobacterium tuberculosis
P19^R strain rv1751 V96L = format: cell-based, Mycobacterium tuberculosis
[2] = system: P19^R strain rv1751 H97Y/N; format: cell-based, Mycobacterium tuberculosis
[3] = system: P19^R strain rv1751 L399W; format: cell-based, Mycobacterium tuberculosis
[4] = system: P19^R strain rv1751 L250Q; format: cell-based, Mycobacterium tuberculosis
[5] = system: P19^R strain rv1751 A434T; format: cell-based, Mycobacterium tuberculosis
[6] = system: Mtb strain H37Rv cydC::aph; format: cell-based, Mycobacterium tuberculosis

SMILES | MIC P152S [1] | fold change P152S [1] | MIC V96L (P19^R strain rv1751 V96L) | fold change V96L (P19^R strain rv1751 V96L) | MIC H97Y/N [2] | fold change H97Y/N [2] | MIC L399W [3] | fold change L399W [3] | MIC L250Q [4] | fold change L250Q [4] | MIC A434T [5] | fold change A434T [5] | MIC CydKO [6] | frequency of resistant clones (Mtb H37Rv)
Cc1nn2c(=O)cc(-c3ccccc3)[nH]c2c1-c1ccccc1 [Compound 1, 2-Methyl-3,5-diphenylpyrazolo[1,5-a]pyrimidin-7(4H)-one] | 2.3 µM (≈ 0.693 µg/mL) | 2 | 2.3 µM (≈ 0.693 µg/mL) | 2 | 1.56 µM (≈ 0.47 µg/mL) | 1.3 | 12.5 µM (≈ 3.77 µg/mL) | 10 | 3.13 µM (≈ 0.943 µg/mL) | 2.6 | 1.56 µM (≈ 0.47 µg/mL) | 1.3 | 12.5 µM (≈ 3.77 µg/mL) | –
O=c1cc(CC2CCCCC2)[nH]c2c(-c3ccc(Cl)cc3)cnn12 [Compound 2, 3-(4-Chlorophenyl)-5-(cyclohexylmethyl)pyrazolo[1,5-a]pyrimidin-7(4H)-one, reference compound] | 1.2 µM (≈ 0.41 µg/mL) | 3 | 1.2 µM (≈ 0.41 µg/mL) | 3 | 0.39 µM (≈ 0.133 µg/mL) | 1 | 0.39 µM (≈ 0.133 µg/mL) | 1 | 1.2 µM (≈ 0.41 µg/mL) | 3 | 1.2 µM (≈ 0.41 µg/mL) | 3 | 25.0 µM (≈ 8.55 µg/mL) | –
COc1ccc(-c2cc(=O)n3nc(C)c(-c4ccc(F)cc4)c3[nH]2)cc1 [Compound 4, 3-(4-Fluorophenyl)-5-(4-methoxyphenyl)-2-methylpyrazolo[1,5-a]pyrimidin-7(4H)-one, reference compound] | 2.3 µM (≈ 0.804 µg/mL) | 1.5 | 2.3 µM (≈ 0.804 µg/mL) | 1.5 | 1.56 µM (≈ 0.545 µg/mL) | 1 | 3.13 µM (≈ 1.09 µg/mL) | 2 | 4.7 µM (≈ 1.64 µg/mL) | 3 | 2.3 µM (≈ 0.804 µg/mL) | 1.5 | 9.40 µM (≈ 3.28 µg/mL) | –
Cc1nn2c(=O)cc(-c3ccc(F)c(F)c3)[nH]c2c1-c1ccccc1 [Compound P19, 5-(3,4-Difluorophenyl)-2-methyl-3-phenylpyrazolo[1,5-a]pyrimidin-7(4H)-one] | 1.56 µM (≈ 0.526 µg/mL) | 2 | 2.3 µM (≈ 0.776 µg/mL) | 3 | 1.56 µM (≈ 0.526 µg/mL) | 2 | 12.5 µM (≈ 4.22 µg/mL) | 16 | 2.3 µM (≈ 0.776 µg/mL) | 3 | 1.56 µM (≈ 0.526 µg/mL) | 2 | 3.13 µM (≈ 1.06 µg/mL) | 3 × 10^–8 and 4 × 10^–9
Cc1nn2c(=O)cc(-c3ccc(Cl)c(Cl)c3)[nH]c2c1-c1ccc(F)cc1 [Compound P24, 5-(3,4-Dichlorophenyl)-3-(4-fluorophenyl)-2-methylpyrazolo[1,5-a]pyrimidin-7(4H)-one] | 3.90 µM (≈ 1.51 µg/mL) | 2.5 | 7.82 µM (≈ 3.04 µg/mL) | 5 | 6.25 µM (≈ 2.43 µg/mL) | 4 | 18.8 µM (≈ 7.3 µg/mL) | 12 | 6.26 µM (≈ 2.43 µg/mL) | 4 | 3.12 µM (≈ 1.21 µg/mL) | 2 | – | –
NNC(=O)c1ccncc1 [INH, isoniazid, reference compound] | 0.04 µM (≈ 0.00549 µg/mL) | – | 0.04 µM (≈ 0.00549 µg/mL) | – | 0.04 µM (≈ 0.00549 µg/mL) | – | 0.04 µM (≈ 0.00549 µg/mL) | – | 0.04 µM (≈ 0.00549 µg/mL) | – | 0.04 µM (≈ 0.00549 µg/mL) | – | 0.30 µM (≈ 0.0411 µg/mL) | –

Reference: article PMC7887755, “Structure–Activity Relationships of Pyrazolo[1,5-a]pyrimidin-7(4H)-ones as Antitubercular Agents” (ACS Infectious Diseases, 2021)
